The record followed here is patent US8906914B2, “Ethylene diamine modulators of fatty acid hydrolase” (priority 2009, dated 2014).

Counter-ions that a name gives are not always drawn.

One assay concerns the target T1, Rat FAAH-1 (Rattus norvegicus, UniProt P97612).
T1 construct: expressed in transfected cells
T1 sequence (P97612 1-579): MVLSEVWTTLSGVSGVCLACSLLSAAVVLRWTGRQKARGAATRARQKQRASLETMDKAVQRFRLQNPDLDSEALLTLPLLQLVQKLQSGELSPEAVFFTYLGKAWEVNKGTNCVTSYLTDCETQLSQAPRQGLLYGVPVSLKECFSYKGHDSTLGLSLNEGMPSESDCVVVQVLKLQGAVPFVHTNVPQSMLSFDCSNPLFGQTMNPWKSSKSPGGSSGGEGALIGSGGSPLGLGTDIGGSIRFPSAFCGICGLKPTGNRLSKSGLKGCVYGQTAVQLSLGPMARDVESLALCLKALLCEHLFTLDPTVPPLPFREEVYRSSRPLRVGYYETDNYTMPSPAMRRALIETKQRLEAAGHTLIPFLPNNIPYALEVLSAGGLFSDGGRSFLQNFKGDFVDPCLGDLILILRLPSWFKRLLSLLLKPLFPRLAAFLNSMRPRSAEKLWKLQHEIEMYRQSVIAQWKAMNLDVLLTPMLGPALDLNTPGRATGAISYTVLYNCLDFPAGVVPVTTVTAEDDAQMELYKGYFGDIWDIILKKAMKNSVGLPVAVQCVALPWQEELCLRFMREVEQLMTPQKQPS
In words: Rat FAAH-1 assay (Assay Method 2), 3H-anandamide hydrolysis in cell homogenate. The class given is biochemical. As for the experimental part:
A. Transfection of Cells with Rat FAAH-1
(§1) A 10-cm tissue culture dish with a confluent monolayer of SK-N-MC cells was split 2 days (d) prior to transfection. Using sterile technique, the media was removed and the cells were detached from the dish by the addition of trypsin. One fifth of the cells were then placed onto a new 10-cm dish. Cells were grown in a 37° C. incubator with 5% CO2 in Minimal Essential Media Eagle with 10% Fetal Bovine Serum. After 2 d, cells were approximately 80% confluent. These cells were removed from the dish with trypsin and pelleted in a clinical centrifuge. The pellet was re-suspended in 400 μL complete media and transferred to an electroporation cuvette with a 0.4 cm gap between the electrodes. Supercoiled rat FAAH cDNA (1 μg) was added to the cells and mixed. The voltage for the electroporation was set at 0.25 kV, and the capacitance was set at 960 μF. After electroporation, the cells were diluted into complete media (10 mL) and plated onto four 10-cm dishes. Because of the variability in the efficiency of electroporation, four different concentrations of cells were plated. The ratios used were 1:20, 1:10, and 1:5, with the remainder of the cells being added to the fourth dish. The cells were allowed to recover for 24 h before adding the selection media (complete media with 600 μg/mL G418). After 10 d, dishes were analyzed for surviving colonies of cells. Dishes with well-isolated colonies were used. Cells from individual colonies were isolated and tested.
(§2) The assay mixture consisted of 50 μL of the cell homogenate, 10 μL of the test compound, and 40 μL of anandamide [1-^3H-ethanolamine] (^3H-AEA, Perkin-Elmer, 10.3 Ci/mmol), which was added last, for a final tracer concentration of 80 nM. The reaction mixture was incubated at rt for 1 h. During the incubation, 96-well Multiscreen filter plates (catalog number MAFCNOB50; Millipore, Bedford, Mass., USA) were loaded with 25 μL of activated charcoal (Multiscreen column loader, catalog number MACL09625, Millipore) and washed once with 100 μL of MeOH. Also during the incubation, 96-well DYNEX MicroLite plates (catalog number NL510410) were loaded with 100 μL of MicroScint40 (catalog number 6013641, Packard Bioscience, Meriden, Conn., USA). After the 1 h incubation, 60 μL of the reaction mixture were transferred to the charcoal plates, which were then assembled on top of the DYNEX plates using Centrifuge Alignment Frames (catalog number MACF09604, Millipore). The unbound labeled ethanolamine was centrifuged through to the bottom plate (5 min at 2000 rpm), which was preloaded with the scintillant, as described above. The plates were sealed and left at rt for 1 h before counting on a Hewlett Packard TopCount.
(§3) Where activity is shown as greater than (>) a particular value, the value is the solubility limit of the compound in the assay medium or the highest concentration tested in the assay.

A further assay concerns the target T2, FAAH (Homo sapiens, UniProt O00519).
T2 sequence (O00519 1-579): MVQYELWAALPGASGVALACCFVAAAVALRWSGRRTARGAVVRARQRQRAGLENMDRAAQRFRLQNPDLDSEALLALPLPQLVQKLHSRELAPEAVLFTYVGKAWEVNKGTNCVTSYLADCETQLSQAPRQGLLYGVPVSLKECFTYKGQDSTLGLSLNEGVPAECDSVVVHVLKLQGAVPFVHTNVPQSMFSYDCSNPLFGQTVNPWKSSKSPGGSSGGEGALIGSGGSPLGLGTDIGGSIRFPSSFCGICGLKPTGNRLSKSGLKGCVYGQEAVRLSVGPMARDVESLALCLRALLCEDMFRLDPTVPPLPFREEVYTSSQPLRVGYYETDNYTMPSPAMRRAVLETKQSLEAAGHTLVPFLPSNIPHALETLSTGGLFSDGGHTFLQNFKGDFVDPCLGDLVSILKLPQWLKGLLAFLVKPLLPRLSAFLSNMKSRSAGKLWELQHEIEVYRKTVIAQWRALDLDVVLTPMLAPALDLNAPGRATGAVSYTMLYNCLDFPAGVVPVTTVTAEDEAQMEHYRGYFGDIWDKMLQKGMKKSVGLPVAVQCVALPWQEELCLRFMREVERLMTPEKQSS
As to the kind of experiment: Human FAAH assay (Assay Method 1), 3H-anandamide hydrolysis in cell homogenate. The assay is classed as biochemical. Also noted: expressed in transfected cells; alternatively T84 frozen cell pellets (endogenous FAAH). As for the experimental part: A. Transfection of Cells with Human FAAH
as §1, with “Supercoiled human” for “Supercoiled rat”
as §2, with “[1-3H-ethanolamine]” for “[1-^3H-ethanolamine]”
as §3

A word on the IC50: it is the concentration that inhibits the measured activity by half. A higher IC50 goes with a need for much substance. Regarding `COc1ccccc1[C@@H](N)CNc1cc(-c2ccc(C(F)(F)F)c(Cl)c2)ncn1` [Example 56, (1R)—N^2-[6-(3-Chloro-4-trifluoromethyl-phenyl)-pyrimidin-4-yl]-1-(2-methoxy-phenyl)-ethane-1,2-diamine], the values for the IC50 against Rat FAAH-1 and on FAAH were 6000 nM and 1200 nM, respectively. As to `N[C@@H](CNc1cc(-c2ccc(OC(F)(F)F)c(F)c2)ncn1)c1ccccc1` [Example 8, (1R)—N^2-{6-[3-Fluoro-4-(trifluoromethoxy)phenyl]pyrimidin-4-yl}-1-phenylethane-1,2-diamine hydrochloride acid salt], the results for the IC50 on Rat FAAH-1 and at FAAH were 170 nM and 50 nM, respectively. For `N[C@@H](CNc1cc(-c2ccc(C(F)(F)F)cc2)ncn1)c1ccccc1` [Example 5, (1R)-1-Phenyl-N^2-{6-[4-(trifluoromethyl)phenyl]pyrimidin-4-yl}ethane-1,2-diamine hydrochloride acid salt], in that order: 1000 nM and 130 nM. For `CN(C)S(=O)(=O)c1ccc(-c2cc(NC[C@H](N)c3ccccc3)ncn2)cc1` [Example 23, 4-(6-{[(2R)-2-Amino-2-phenylethyl]amino}pyrimidin-4-yl)-N,N-dimethylbenzenesulfonamide hydrochloride acid salt], in that order: 1600 nM and 113 nM. `N[C@@H](CNc1cc(-c2ccc(C(F)(F)F)c(Cl)c2)ncn1)c1ccc2ccccc2c1` [Example 51, (1R)—N^2-[6-(3-Chloro-4-trifluoromethyl-phenyl)-pyrimidin-4-yl]-1-naphthalen-2-yl-ethane-1,2-diamine]: the values for the IC50 at Rat FAAH-1 and at FAAH were 40 nM and 125 nM, respectively. For `N#Cc1cccc([C@@H](N)CNc2cc(-c3ccc(C(F)(F)F)c(Cl)c3)ncn2)c1` [Example 49, (1R)-3-{1-Amino-2-[6-(3-chloro-4-trifluoromethyl-phenyl)-pyrimidin-4-ylamino]-ethyl}-benzonitrile], in that order: 770 nM and 1000 nM. For `N[C@@H](CNc1cc(-c2cccc(Cl)c2)ncn1)c1ccccc1` [Example 15, (1R)—N^2-[6-(3-Chlorophenyl)pyrimidin-4-yl]-1-phenylethane-1,2-diamine hydrochloride acid salt], the IC50 against FAAH worked out at 1000 nM.

Consider `N[C@@H](CNc1cc(-c2ccc(C(F)(F)F)c(Cl)c2)ncn1)c1ccc(Cl)c(Cl)c1` [Example 43, (1R)—N^2-[6-(3-Chloro-4-trifluoromethyl-phenyl)-pyrimidin-4-yl]-1-(3,4-dichloro-phenyl)-ethane-1,2-diamine], for which the figures for the IC50 against Rat FAAH-1 and against FAAH were 95 nM and 200 nM, respectively. The like results for `CCSc1ccc(-c2cc(NC[C@H](N)c3ccccc3)ncn2)cc1` [Example 22, (1R)—N^2-{6-[4-(Ethylsulfanyl)phenyl]pyrimidin-4-yl}-1-phenylethane-1,2-diamine hydrochloride acid salt] were, in that order, 240 nM and 7 nM. The like results for `N#Cc1ccc([C@H](N)CNc2cc(-c3ccc(C(F)(F)F)c(Cl)c3)ncn2)cc1` [Example 33, (1S)-4-{1-Amino-2-[6-(3-chloro-4-trifluoromethyl-phenyl)-pyrimidin-4-ylamino]-ethyl}-benzonitrile] were, in that order, 1000 nM and 570 nM.

As to `N[C@@H](CNc1cc(-c2ccc(OCC(F)(F)F)c(F)c2)ncn1)c1ccccc1` [Example 21, (1R)—N^2-{6-[3-Fluoro-4-(2,2,2-trifluoroethoxy)phenyl]pyrimidin-4-yl}-1-phenylethane-1,2-diamine hydrochloride acid salt], the IC50 against Rat FAAH-1 came out at 675 nM; against FAAH, 77 nM.

With `N[C@H](CNc1cc(-c2ccc(C(F)(F)F)c(Cl)c2)ncn1)c1ccc(F)cc1` [Example 28, (1S)—N^2-[6-(3-Chloro-4-trifluoromethyl-phenyl)-pyrimidin-4-yl]-1-(4-fluoro-phenyl)-ethane-1,2-diamine], the IC50 at Rat FAAH-1 was 900 nM; at FAAH it was 600 nM.

Regarding `CCOc1ccc(-c2cc(NC[C@H](N)c3ccccc3)ncn2)cc1C(F)(F)F` [Example 10, (1R)—N^2-{6-[4-Ethoxy-3-(trifluoromethyl)phenyl]pyrimidin-4-yl}-1-phenylethane-1,2-diamine hydrochloride acid salt], the IC50 against Rat FAAH-1 amounted to 84 nM; on FAAH, 26 nM. The like results for `Cc1ccc2sc(-c3cc(NC[C@H](N)c4ccccc4)ncn3)cc2c1` [Example 9, (1R)—N^2-[6-(5-Methyl-1-benzothiophen-2-yl)pyrimidin-4-yl]-1-phenylethane-1,2-diamine hydrochloride acid salt] were, in that order, 320 nM and 20 nM.
